Measured values as given in US6365594B1, “Heterocycle-condensed morphinoid derivatives (II)” (SmithKline Beecham S.p.A., priority 1996, dated 2002).
Structures can show the parent of a compound that is named as a salt.

What was measured:
[1] = target: T1, mu opioid receptor (Mus musculus, UniProt P42866); assay: radioligand binding, mu ligand [3H]-DAMGO, mouse brain membranes; settings: selectivity ratio
T1 construct: Mouse brain membranes were prepared as described by Kosterlitz; from tissue; host or cells: mouse brain membranes
T1 sequence (P42866 whole entry): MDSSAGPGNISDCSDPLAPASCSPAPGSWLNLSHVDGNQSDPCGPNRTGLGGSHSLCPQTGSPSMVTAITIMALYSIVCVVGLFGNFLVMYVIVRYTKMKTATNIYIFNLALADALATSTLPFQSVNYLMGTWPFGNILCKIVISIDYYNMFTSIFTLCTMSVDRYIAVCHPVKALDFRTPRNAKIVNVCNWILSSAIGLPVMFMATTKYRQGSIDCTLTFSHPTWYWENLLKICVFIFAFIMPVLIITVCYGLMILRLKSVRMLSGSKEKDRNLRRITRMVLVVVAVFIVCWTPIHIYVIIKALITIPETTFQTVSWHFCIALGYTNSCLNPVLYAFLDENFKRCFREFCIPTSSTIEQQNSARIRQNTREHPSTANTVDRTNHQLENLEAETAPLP
Method: (§1) The activity of the compounds of the present invention as selective delta ligands is determined in radioligand binding assays as described below.
(§2) Mouse brain membranes were prepared as described by Kosterlitz (Br. J. Pharmacol., 1981, 73, 939.). The binding of the preferential delta ligand [^3H]-[D-Ala^2,D-Leu^5]-enkephalin (DADLE) was evaluated at its KD concentration (1.3 nM) in presence of 40 nM of the unlabelled mu ligand [D-Ala^2, MePhe^4, Gly-ol^5]-enkephalin (DAMGO). The binding of the mu ligand [^3H]-DAMGO (Eur. J. Pharmacol., 1989, 166, 213) and of the kappa ligand [^3H]-U69593 (Excerpta Medica, 1990, 211) were carried out at 0.5 nM. The non-specific binding was determined in presence of naloxone (10 μM) for all tritiated ligands. Binding data were expressed as percentage of inhibition and fitted the following equation: f(x)=100·X/(IC50+X) where X are cold drug concentration values. The IC50 obtained were used to calculate the inhibitory constants (Ki) accordingly to the Cheng and Prusoff relation (Biochem. Pharmacol., 1973, 22, 3099).

[2] = target: T2, kappa opioid receptor (Mus musculus, UniProt P33534); assay: radioligand binding, kappa ligand [3H]-U69593, mouse brain membranes; settings: selectivity ratio
T2 construct: Mouse brain membranes were prepared as described by Kosterlitz; from tissue; host or cells: mouse brain membranes
T2 sequence (P33534 whole entry): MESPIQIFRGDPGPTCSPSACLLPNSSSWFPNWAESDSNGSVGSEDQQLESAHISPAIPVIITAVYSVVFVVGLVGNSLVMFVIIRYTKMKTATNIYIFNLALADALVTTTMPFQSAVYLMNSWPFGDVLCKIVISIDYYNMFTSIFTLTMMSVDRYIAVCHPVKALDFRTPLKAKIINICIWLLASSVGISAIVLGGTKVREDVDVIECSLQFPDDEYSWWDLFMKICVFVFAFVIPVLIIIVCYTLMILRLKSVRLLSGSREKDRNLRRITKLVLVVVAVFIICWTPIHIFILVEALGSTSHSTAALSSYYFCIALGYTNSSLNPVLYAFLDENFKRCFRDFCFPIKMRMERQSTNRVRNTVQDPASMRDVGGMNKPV
Method: as §1, §2

[3] = target: T3, delta receptor (Mus musculus, UniProt P32300); assay: cAMP bioassay in NG108-15 cells (inhibition of forskolin-stimulated cAMP); type: cell-based
T3 construct: endogenous in cells; host or cells: NG108-15 cells
T3 sequence (P32300 whole entry): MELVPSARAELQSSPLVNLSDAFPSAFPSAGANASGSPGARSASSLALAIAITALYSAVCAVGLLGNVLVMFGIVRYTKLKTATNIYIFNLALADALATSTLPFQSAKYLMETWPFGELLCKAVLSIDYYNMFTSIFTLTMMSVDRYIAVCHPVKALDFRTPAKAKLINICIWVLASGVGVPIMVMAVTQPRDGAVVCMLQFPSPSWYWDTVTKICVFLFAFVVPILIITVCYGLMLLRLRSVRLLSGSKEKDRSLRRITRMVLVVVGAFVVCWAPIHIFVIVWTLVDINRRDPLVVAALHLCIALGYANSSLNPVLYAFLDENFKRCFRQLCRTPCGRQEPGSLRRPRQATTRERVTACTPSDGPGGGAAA
Method: The delta agonistlantagonist activity of the compounds of the present invention is determined in the cAMP bioassay in NG108-15 cell lines as described below.
NG 108-15 cell were grown at 37° C. in humidified atmosphere of 5% CO2 and 95% air in DMEM (without sodium pyruvate using 4500 mg/l glucose) supplemented with 10% foetal calf serum containing 2 mM glutamine, 2% HAT×50 supplement, 50 μg streptomycin and 50 I.U. penicillin per ml confluent cells were harvested with […] in Ca/Mg-free phosphate-buffered saline with mechanical stiring. Medium was replaced every 2 day. One day before the experiment the cells were dispensed in 17 mm culture plate (about 10×10^6 cells/plate). After 1 day, the growth medium was removed and cells washed twice with a modified Krebs-Ringer medium buffered with hepes-NaOH 200 mM, pH 7.4, that contained (mmol/l): NaCl (125), KCl (5), KH2PO4 (0.4), MgSO4 and CaCl2 (1.2) NaHCO3 (25), glucose (12). Incubation medium was also including 1 mM 3-isobuthyl-1-methylxantine (IBMX). Experiments were performed at room temperature. After incubation for 10 minutes to allow IBMX incorporation, NG108-15 cells were exposed to 1 μM forskolin and the compound to be tested, for 10 minutes. […] The pellets from the original plates were dissolved in NaOH 0.5N and the protein content was determined with the method described by Bradfort (Anal. Biochem. 1976, 72, 248). […]

SMILES	Ki mu/Ki delta [1]	Ki kappa/Ki delta [2]	melting point [°C]	IC50 [3] [µM]	antagonism of the agonist activity by the selective delta antagonist naltrindole ([3]; NG108-15 cells, naltrindole 100 nM)
CCOC(=O)c1[nH]c2c(c1C(F)(F)F)C[C@H]1[C@H]3Cc4ccc(OC)c5c4[C@@]1(CCN3C)[C@H]2O5 [Example 10]	840	600	174		
COc1ccc2c3c1O[C@H]1c4[nH]c(C(=O)N(Cc5ccccc5)C(C)C)c(C)c4C[C@H]4[C@@H](C2)N(C)CC[C@]314 [Example 1, [R-(4bS*,8α,s8aβp,12βp)]11(N-N-benzylN-isopropylaminocarbonyl)-7,10dimethyl-1-methoxy-5,6,7,8,12,12b-hexahydro-(9H){4,8methanobenzofuro[3,2]pyrrolo[2,3-g]soquinoline hydrochloride]				0.015	completely antagonised
